Measurements published in patent US6720342B2, “Heterocyclic compounds and their preparation and use” (Novo Nordisk A/S, priority 1996, dated 2004).
Counter-ions that a name gives are not always drawn.

Key:
[1] = molecular target: muscarinic acetylcholine receptors; assay: Inhibition of specific binding of 3H-Oxotremorine-M (3H-Oxo) to rat cortex membranes; conditions: rat cortex homogenate, 1.0 nM 3H-Oxotremorine, 30 min at 25° C.
Source text: The pharmacological properties of the compounds of the invention can be illustrated by determining their capability to inhibit the specific binding of ^3H-Oxotremorine-M (^3H-Oxo). Birdsdall N. J. M., Hulme E. C., and Burgen A. S. V. (1980). “The Character of Muscarinic Receptors in Different Regions of the Rat Brain”. Proc. Roy. Soc. London (Series B) 207, 1.
^3H-Oxo labels muscarinic receptor in the CNS (with a preference for agonist domains of the receptors). Three different sites are labelled by ^3H-Oxo. […] Using the present experimental conditions only the high and medium affinity sites are determined.
The inhibitory effects of compounds on ^3H-Oxo binding reflects the affinity for muscarinic acetylcholine receptors.
(§1) All preparations are performed at 0-4° C. unless otherwise indicated. Fresh cortex (0.1-1 g) from male Wistar rats (150-250 g) is homogenized for 5-10 s in 10 ml 20 mM Hepes pH: 7.4, with an Ultra-Turrax homogenizer. The homogenizer is rinsed with 10 ml of buffer and the combined suspension centrifuged for 15 min. at 40,000×g. The pellet is washed three times with buffer. In each step the pellet is homogenized as before in 2×10 ml of buffer and centrifuged for 10 min. at 40,000×g.
The final pellet is homogenized in 20 mM Hepes pH: 7.4 (100 ml per g of original tissue) and used for binding assay. Aliquots of 0.5 ml is added 25 μl of test solution and 25 μl of ^3H-Oxotremorine (1.0 nM, final concentration) mixed and incubated for 30 min. at 25° C. Non-specific binding is determined in triplicate using arecoline (1 μg/ml, final concentration) as the test substance. After incubation samples are added 5 ml of ice-cold buffer and poured directly onto Whatman GF/C glass fiber filters under suction and immediately washed 2 times with 5 ml of ice-cold buffer. The amount of radioactivity on the filters are determined by conventional liquid scintillation counting. Specific binding is total binding minus non specific binding.
Test substances are dissolved in 10 ml water (if necessary heated on a steambath for less than 5 min.) at a concentration of 2.2 mg/ml. 25-75% inhibition of specific binding must be obtained before calculation of IC50.
The test value will be given as IC50 (the concentration (nM) of the test substance which inhibits the specific binding of ^3H-Oxo by 50%).
(§2) IC50=(applied test substance concentration)×(Cx/Co−Cx)nM
(§3) where Co is specific binding in control assays and Cx is the specific binding in the test assay. (The calculations assume normal mass-action kinetics).

[2] = molecular target: T1, muscarinic receptors (M1-site, pirenzepine sensitive site) (Rattus norvegicus, UniProt P08482); assay: Inhibition of 3H-PRZ (pirenzepine, [N-methyl-3H]) binding to rat cerebral cortex membranes; conditions: 1.0 nM 3H-Pirenzepine, 60 min at 20° C.
T1 construct: Fresh cortex (0.1-1 g) from male Wistar rats (150-200 g) is homogenized; from tissue; host or cells: rat (male Wistar) cerebral cortex membranes
T1 sequence (P08482 1-460): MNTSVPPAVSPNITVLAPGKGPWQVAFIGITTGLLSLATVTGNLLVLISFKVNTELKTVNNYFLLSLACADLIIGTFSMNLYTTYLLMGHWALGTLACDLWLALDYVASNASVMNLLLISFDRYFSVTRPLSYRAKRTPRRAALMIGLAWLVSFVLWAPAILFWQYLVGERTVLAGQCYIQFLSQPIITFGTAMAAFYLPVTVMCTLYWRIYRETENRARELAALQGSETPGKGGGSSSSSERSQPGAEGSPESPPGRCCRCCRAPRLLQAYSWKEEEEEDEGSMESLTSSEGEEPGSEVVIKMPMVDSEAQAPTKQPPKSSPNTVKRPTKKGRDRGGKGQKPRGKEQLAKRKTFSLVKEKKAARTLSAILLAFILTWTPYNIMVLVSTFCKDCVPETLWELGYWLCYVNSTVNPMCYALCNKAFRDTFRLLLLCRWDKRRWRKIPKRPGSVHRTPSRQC
Method: Furthermore the pharmacological properties of the compounds of the invention can also be illustrated by determining their capability to inhibit ^3H-PRZ (pirenzepine, [N-methyl-^3H]) binding to rat cerebral cortex membranes. Pirenzepine binds selectively to subtype of muscarinic receptors. Historically the type is named the M1-site, whereas pirenzepine sensitive site would be more appropriate. Although selective for M1-sites pirenzepine also interact with M2-sites.
as §1, with “rats (150-200” for “rats (150-250”, “5-10 s.” for “5-10 s”, “with 2×10” for “with 10”, “15 min” for “15 min.”, “in 3×10” for “in 2×10”, “10 min” for “10 min.”
The final pellet is homogenized in 20 mM Hepes pH: 7.4 (100 ml per g of original tissue) and used for binding assay. Aliquots of 0.5 ml is added 20 μl of test solution and 25 μl of ^3H-Pirenzepine (1.0 nM, final conc.), mixed and incubated for 60 min at 20° C. Non-specific binding is determined in triplicate using atropine (1 μg/ml, final conc.) as the test substance. After incubation samples are added 5 ml of ice-cold buffer and poured directly onto Whatman GF/C glass fiber filters under suction and immediately washed 2 times with 5 ml of ice-cold buffer. The amount of radioactivity on the filters are determined by conventional liquid scintillation counting. Specific binding is total binding minus non-specific binding.
Test substances are dissolved in 10 ml water, at a concentration of 0.22 mg/ml. 25-75% inhibition of specific binding must be obtained before calculation of IC50.
The test value will be given as IC50 (the concentration (nM) of the test substance which inhibits the specific binding of ^3H-PRZ by 50%).
as §2, §3

SMILES	melting point [°C]	IC50 [1] [nM]	IC50 [2] [nM]
FC(F)(F)Oc1ccc(COc2nsnc2OC2CN3CCC2C3)cc1 (stereo not drawn) (as salt: oxalate) [Compound 14, Endo 3-(3-[4-trifluoromethoxybenzyloxy]-1,2,5-thiadiazol-4-yloxy)-1-azabicyclo[2.2.1]heptane, oxalate]	116 to 119		
FC(F)(F)CCCOc1nsnc1OC1CN2CCC1C2 (stereo not drawn) (as salt: oxalate) [Compound 15, Endo 3-(3-[4,4,4-trifluorobutyl-1-oxy]-1,2,5-thiadiazol-4-yloxy)-1-azabicyclo[2.2.1]heptane, oxalate]	135 to 137		
Fc1cc(C(F)(F)F)ccc1COc1nsnc1OC1CN2CCC1C2 (stereo not drawn) (as salt: oxalate) [Compound 16, Endo 3-(3-[2-fluoro-4-(trifluoromethyl)-benzyloxy]-1,2,5-thiadiazol-4-yloxy)-1-azabicyclo[2.2.1]heptane, oxalate]	112 to 114		
COc1cccc(C#CC(C)Oc2nsnc2OC2CN3CCC2C3)c1 (stereo not drawn) (as salt: oxalate) [Compound 17, Endo 3-(3-[4-(3-methoxyphenyl)-3-butyn-2-yloxy]-1,2,5-thiadiazol-4-yloxy)-1-azabicyclo[2.2.1]heptane, oxalate]	102 to 103		
Clc1ccc(C#CCOc2nsnc2OC2CN3CCC2C3)cc1 (stereo not drawn) (as salt: oxalate) [Compound 18, Endo 3-(3-[3-(4-chlorophenyl)-2-propynyl-1-oxy]-1,2,5-thiadiazol-4-yloxy)-1-azabicyclo[2.2.1]heptane, oxalate]	118 to 122		
C(#Cc1cccnc1)COc1nsnc1OC1CN2CCC1C2 (stereo not drawn) (as salt: oxalate) [Compound 23, Endo 3-(3-(3-pyridyl)-2-propyn-1-yloxy)-1,2,5-thiadiazol-4-yloxy)-1-azabicyclo[2.2.1]heptane, dioxalate]	136 to 139		
C(#Cc1ccccn1)COc1nsnc1OC1CN2CCC1C2 (stereo not drawn) (as salt: oxalate) [Compound 25, Endo 3-(3-(2-pyridyl)-2-propyn-1-yloxy)-1,2,5-thiadiazol-4-yloxy)-1-azabicyclo[2.2.1]heptane, dioxalate]	158 to 160		
N#CCCSc1nsnc1OC1CN2CCC1C2 (stereo not drawn) (as salt: oxalate) [Compound 32, Endo 3-(3-[2-cyanoethylthio]-1,2,5-thiadiazol-4-yloxy)-1-azabicyclo-[2.2.1]heptane, oxalate]	168 to 169		
FCCSc1nsnc1OC1CN2CCC1C2 (stereo not drawn) (as salt: oxalate) [Compound 34, Endo 3-(3-[2-fluoroethyl-1-thio]-1,2,5-thiadiazol-4-yloxy)-1-azabicyclo-[2.2.1]heptane, oxalate]	131 to 133		

Other lines, results leading:

melting point [°C]	IC50 [1] [nM]	IC50 [2] [nM]	SMILES
98 to 101			CCC(C#Cc1cccc(OC)c1)Oc1nsnc1OC1CN2CCC1C2 (stereo not drawn) (as salt: oxalate) [Compound 19, Endo 3-(3-[1-(3-methoxyphenyl)-1-pentyn-3-yloxy]-1,2,5-thiadiazol-4-yloxy)-1-azabicyclo[2.2.1]heptane, oxalate]
131 to 135			FC(F)(F)c1cccc(C#CCOc2nsnc2OC2CN3CCC2C3)c1 (stereo not drawn) (as salt: oxalate) [Compound 20, Endo 3-(3-(3-(3-trifluoromethylphenyl)-2-propynyl-1-oxy)-1,2,5-thiadiazol-4-yloxy)-1-azabicyclo[2.2.1]heptane, oxalate]
146 to 148			C(#Cc1ccoc1)COc1nsnc1OC1CN2CCC1C2 (stereo not drawn) (as salt: oxalate) [Compound 26, Endo 3-(3-(3-(3-furyl)-2-propyn-1-yloxy)-1,2,5-thiadiazol-4-yloxy)-1-azabicyclo[2.2.1]heptane, oxalate]
175 to 177			Fc1cccc(C#CCOc2nsnc2OC2CN3CCC2C3)c1 (stereo not drawn) (as salt: oxalate) [Compound 28, Endo 3-(3-(3-(3-fluorophenyl)-2-propyn-1-yloxy)-1,2,5-thiadiazol-4-yloxy-1-azabicyclo[2.2.1]heptane, oxalate]
114 to 115			FC(F)(F)CCCSc1nsnc1OC1CN2CCC1C2 (stereo not drawn) (as salt: oxalate) [Compound 30, Endo 3-(3-(4,4,4-trifluorobutylthio)-1,2,5-thiadiazol-4-yloxy)-1-azabicyclo-[2.2.1]heptane, oxalate]
196 to 197			N#Cc1ccc(CSc2nsnc2OC2CN3CCC2C3)cc1 (stereo not drawn) (as salt: oxalate) [Compound 31, Endo 3-(3-[4-cyanobenzylthio]-1,2,5-thiadiazol-4-yloxy)-1-azabicyclo-[2.2.1]heptane, oxalate]
98 to 100			Fc1ccc(CSc2nsnc2OC2CN3CCC2C3)c(F)c1 (stereo not drawn) (as salt: oxalate) [Compound 33, Endo 3-(3-[2,4-difluorobenzylthio]-1,2,5-thiadiazol-4-yloxy)-1-azabicyclo-[2.2.1]heptane, oxalate]
144 to 147			COc1cccc(C#CC(Oc2nsnc2OC2CN3CCC2C3)C(C)C)c1 (stereo not drawn) (as salt: oxalate) [Compound 39, Endo 3-(3-[1-(3-methoxyphenyl)-4-methyl-1-pentyn-3-yloxy]-1,2,5-thiadiazol-4-yloxy)-1-azabicyclo[2.2.1]heptane, oxalate]
153 to 156			FC(F)(F)COc1nsnc1OC1CN2CCC1C2 (stereo not drawn) (as salt: oxalate) [Compound 40, Endo 3-(3-[2,2,2-trifluoroethyl-1-oxy]-1,2,5-thiadiazol-4-yloxy)-1-azabicyclo[2.2.1]heptane, oxalate]
96 to 99			C1CC(COc2nsnc2OC2CN3CCC2C3)C1 (stereo not drawn) (as salt: oxalate) [Compound 41, Endo 3-(3-cyclobutylmethyloxy-1,2,5-thiadiazol-4-yloxy)-1-azabicyclo-[2.2.1]heptane, oxalate]
82 to 84	190	50	CC(C#Cc1ccc(F)cc1)=CCOc1nsnc1OC1CN2CCC1C2 (stereo not drawn) [Compound 22, Endo (E)-3-(3-(5-(4-fluorophenyl)-3-methyl-2-penten-4-yn-1-yloxy)-1,2,5-thiadiazol-4-yloxy)-1-azabicyclo[2.2.1]heptane]
